Reference: article PMC6148290, “Endogenous metabolites of vitamin E limit inflammation by targeting 5-lipoxygenase” (Nature Communications, 2018)
Read-outs that look alike come from different tables or passages of the source.

Legend:
[1] = LCM concentrations in plasma and peritoneal exudate of mice with peritonitis (UPLC-MS/MS); type: in vivo; details: CD-1, mouse; for concentration at 240 min: ip, 10 mg/kg i.p., 240 min post zymosan
Description: Mice were killed by inhalation of CO2 after another 30 min for determination of LTC4 levels and vascular permeability and after 4 h for the analysis of LTB4 levels, lipidomic profiles and immune cell infiltration. Cell infiltration and lipid mediator profiles during resolution were studied after 18 h. Peritoneal exudates were collected and cells counted after vital trypan blue staining. LTC4, LTB4, and PGE2 were analyzed in the exudate by enzyme immunoassays (Enzo Life Sciences, Lörrach, Germany) according to manufacturer's instructions. To assess vascular permeability, Evans blue dye (40 mg/kg in saline, 0.3 ml; Sigma-Aldrich) was injected into the tail vain immediately before the induction of peritonitis. Exudates were centrifuged (3000 × g, 5 min) and the absorbance of the supernatants was measured at 610 nm using a Beckman Coulter DU730 spectrophotometer. To investigate the effect of α-T (1a) on the accumulation of α-T-13'-COOH (4a) in infiltrated leukocytes after peritonitis has been established, vehicle or α-[…].) were given 1 h before and/or 4 h post zymosan injection, and mice were killed after another 1.5 h. Leukocytes were obtained from peritoneal exudates by centrifugation (1200 × g, 10 min, 4 °C). Lipids, including LCMs, were extracted from PMNL, murine peritoneal exudates or murine plasma by successive addition of PBS pH 7.4, methanol, chloroform and saline (final ratio: 14:34:35:17)[68]. […] Multiple reaction monitoring was used to detect LCMs in the negative ion mode. The precursor-to-product ion transitions were selected according to Jiang et al.[69] and are listed in Supplementary Table 3. The ion spray voltage was set to -4500 V, the heated capillary temperature to 450 °C, the sheath gas pressure to 50 psi, the auxiliary gas pressure to 40 psi, and the declustering potential to 80 eV (for Ts) or 110 eV (for TEs). Collision energies and lower limits of quantitation are listed in Supplementary Table 3.

[2] = target: T1, 12-LO (Homo sapiens, UniProt P18054); assay: 12-LO product formation in A23187/AA-activated PMNL; type: cell-based
T1 construct: 12-HETE (12-LO product from platelets in PMNL preparations); endogenous in cells; host or cells: platelets contaminating human PMNL preparations
T1 sequence (P18054 1-663): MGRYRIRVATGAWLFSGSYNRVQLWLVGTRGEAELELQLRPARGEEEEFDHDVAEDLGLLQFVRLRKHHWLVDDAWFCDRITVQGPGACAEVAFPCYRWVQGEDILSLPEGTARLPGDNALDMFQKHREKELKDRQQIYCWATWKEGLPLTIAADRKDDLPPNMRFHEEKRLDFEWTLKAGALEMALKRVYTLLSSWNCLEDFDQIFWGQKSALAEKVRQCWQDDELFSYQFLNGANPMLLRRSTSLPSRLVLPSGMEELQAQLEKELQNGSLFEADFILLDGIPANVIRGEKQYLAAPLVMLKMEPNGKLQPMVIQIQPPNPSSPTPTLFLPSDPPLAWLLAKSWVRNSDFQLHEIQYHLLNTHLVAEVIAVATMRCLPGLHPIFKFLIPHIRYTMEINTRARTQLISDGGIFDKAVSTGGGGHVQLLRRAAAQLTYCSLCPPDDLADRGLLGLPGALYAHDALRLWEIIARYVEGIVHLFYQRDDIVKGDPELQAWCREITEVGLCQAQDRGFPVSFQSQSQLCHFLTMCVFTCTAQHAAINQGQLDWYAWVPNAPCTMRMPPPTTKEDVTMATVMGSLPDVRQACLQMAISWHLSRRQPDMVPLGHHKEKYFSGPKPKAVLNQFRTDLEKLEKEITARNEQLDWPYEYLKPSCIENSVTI
Description: Cells were washed and medium was exchanged. Freshly isolated PMNL (1 × 10^7) and stably transfected HEK-293 (1 × 10^6) cells were suspended in PBS pH 7.4 containing 1 mg/ml glucose and 1 mM CaCl2. […] A23187- and A23187/AA-treated PMNL and A23187/AA-treated HEK-293 (5-LO_wt), HEK-293 (5-LO_3W) and HEK-293 (5-LO_Arg101Asp) cells produced 135 ± 21, 636 ± 112, 300 ± 59, 133 ± 29, 55 ± 9 ng 5-LO products, respectively. PMNL synthesized 29 ± 6 ng 12-HETE and 97 ± 23 ng 15-HETE when challenged with A23187/AA. 5-LO products from monocytes were analyzed by UPLC-MS/MS.

[3] = tested on: LTB4 formation; assay: LTB4 formation in LPS/fMLP-stimulated human blood; type: cell-based; details: 100 nM
Description: LPS-activated monocytes were treated with A23187 (2.5 µM) and AA (20 µM) to induce lipid mediator biosynthesis as described for LO product formation. Human blood was pre-incubated with vehicle (DMSO) or α-T-13′-COOH (4a, 100 nM) for 10 min, primed with LPS (1 µg/ml) for 30 min and stimulated with N-formyl-methionyl-leucyl-phenylalanine (fMLP, Sigma-Aldrich; 1 µM) for 15 min at 37 °C.

[4] = target: T2, COX-2 (Homo sapiens, UniProt P35354); assay: Activity of isolated COX-2; type: biochemical; set-up: purchased Cayman Chemicals; details: up to 10 µM
T2 sequence (P35354 18-604): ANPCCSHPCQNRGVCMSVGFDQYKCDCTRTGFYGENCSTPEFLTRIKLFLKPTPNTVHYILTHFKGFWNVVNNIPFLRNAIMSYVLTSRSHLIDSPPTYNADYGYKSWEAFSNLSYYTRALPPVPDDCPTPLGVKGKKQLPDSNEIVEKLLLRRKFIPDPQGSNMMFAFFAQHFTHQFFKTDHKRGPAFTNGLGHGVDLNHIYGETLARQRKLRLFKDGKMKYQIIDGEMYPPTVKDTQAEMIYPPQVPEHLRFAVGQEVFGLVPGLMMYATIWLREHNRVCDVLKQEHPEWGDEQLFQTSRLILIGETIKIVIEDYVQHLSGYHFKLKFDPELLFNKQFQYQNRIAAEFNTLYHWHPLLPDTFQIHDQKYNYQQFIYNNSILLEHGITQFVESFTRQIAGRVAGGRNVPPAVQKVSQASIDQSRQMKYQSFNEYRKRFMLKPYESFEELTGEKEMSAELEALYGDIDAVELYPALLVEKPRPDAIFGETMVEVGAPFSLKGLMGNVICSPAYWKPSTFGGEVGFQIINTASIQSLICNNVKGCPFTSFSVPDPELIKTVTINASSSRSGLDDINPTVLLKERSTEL
Description: Purified bovine COX-1 (Cayman Chemicals; 50 units) or human recombinant COX-2 (Cayman Chemicals; 20 units) in 100 mM Tris buffer pH 8, 5 mM glutathione, 5 µM hemoglobin, and 100 µM EDTA were pre-incubated with LCMs for 5 min at 4 °C followed by 1 min at 37 °C. Formation of COX-derived 12(S)-hydroxy-5-cis-8,10-trans-heptadecatrienoic acid (12-HHT) was initiated by addition of AA (COX-1: 5 μM; COX-2: 2 μM).

With `Cc1c(C)c2c(c(C)c1O)CC[C@@](C)(CCCC(C)CCCC(C)CCCC(C)C(=O)O)O2` (stereo partly drawn) [4a, 13-((2R)-6-hydroxy-2,5,7,8-tetramethylchroman-2-yl)-2,6,10-trimethyltridecanoic acid] as the molecule, how does the concentration at 30 min ([1]; peritoneal exudate, endogenous, 30 min post zymosan injection, read-out: α-T-13′-COOH (4a) concentration in peritoneal exudate) read?
The concentration at 30 min was no more than 200 nM.

What about the concentration at 240 min ([1]; peritoneal exudate, read-out: α-T-13′-COOH (4a) concentration in peritoneal exudate) of the same molecule?
Its concentration at 240 min is 3900 nM.

And the concentration at 240 min ([1]; plasma, read-out: α-T-13′-COOH (4a) concentration in plasma)?
The concentration at 240 min was 1400 nM.

And the IC50 [2]?
Its IC50 is greater than 3 µM.

And the “12-LO product formation/PMNL, residual activity” value ([2]; at 3 µM, mean ± s.e.m., n = 3, n.i. no inhibition)?
The value was 55.3 ± 1.7 % of control.

And the “effect on LTB4 formation in activated human blood” value [3]?
Its value is “inhibited”.

And the “inhibition of human recombinant COX-2” value [4]?
Its value is “not inhibited”.
